Read-outs that look alike come from different tables or passages of the source. Marks after values point to notes of the source that are not given here.
Columns and labels:
[1] = test system: A431 cells; assay: PrestoBlue-based cytotoxicity assay, A431; assay type: cell-based, human; details: PrestoBlue viability assay
Method: (§1) All experiments were performed using a robotic pipetting workstation (Hamilton Robotics STAR Let). Cells were seeded at a final cell density of 1875 cells per well in 384-well plates in the triple co-culture (625 cells from each lines) and at 2500 cells per well in the A431 control and A431-2B1 co-culture (1250 cells from both) systems. Co-cultured cells were incubated for 24 h at 37 °C and 5% CO2 under humidified atmosphere prior to the addition of drugs. […] Data were exported to a custom-made program for determining growth inhibition curves for each cell line. In confirmatory screens, compounds were tested with the same method in a nine-point dose response format. For validation, compounds were confirmed in cytotoxicity assays using the PrestoBlue cell viability reagent (ThermoFisher), according to the manufacturer’s instructions.

[2] = test system: A431B1 cells; assay: PrestoBlue-based cytotoxicity assay, A431B1; assay type: cell-based, human; details: PrestoBlue viability assay
Method: as §1

[3] = test system: A431G2 cells; assay: PrestoBlue-based cytotoxicity assay, A431G2; assay type: cell-based, human; details: PrestoBlue viability assay
Method: as §1

[4] = test system: Mes-Sa cells; assay: PrestoBlue-based cytotoxicity assay, Mes-Sa; assay type: cell-based, human; details: PrestoBlue viability assay
Method: as §1

[5] = test system: Mes-Sa/Dx5 cells; assay: PrestoBlue-based cytotoxicity assay, Mes-Sa/DX5; assay type: cell-based, human; details: PrestoBlue viability assay
Method: as §1

[6] = test system: Mes-Sa-B1 cells; assay: PrestoBlue-based cytotoxicity assay, Mes-Sa-B1; assay type: cell-based, human; details: PrestoBlue viability assay
Method: as §1

[7] = test system: Mes-Sa-B1 cells (Pgp overexpressing); assay: Fluorescence-based cytotoxicity assay, Mes-Sa-B1 mOr; details: for IC50: fluorescent protein based assay; for RR (Mes-Sa-B1): resistance ratio = IC50 Mes-Sa-B1 / IC50 parental Mes-Sa, triple co-culture screen
[8] = test system: Mes-Sa/Dx5 cells; assay: Fluorescence-based cytotoxicity assay, Mes-Sa/Dx5 eGFP; details: for IC50: fluorescent protein based assay; for RR (Dx5): resistance ratio = IC50 Mes-Sa/Dx5 / IC50 parental Mes-Sa, triple co-culture screen
[9] = test system: A431 cells; assay: Fluorescence-based cytotoxicity assay, parental A431 eGFP
[10] = test system: Mes-Sa cells; assay: Fluorescence-based cytotoxicity assay, parental Mes-Sa mCh; details: fluorescent protein based assay
[11] = test system: A431-B1 cells (ABCB1/P-glycoprotein expressing); assay: Fluorescence-based cytotoxicity assay, ABCB1-expressing A431-B1 mCh; details: for IC50: fluorescent protein based assay; for RR (A431B1): resistance ratio = IC50 A431B1 / IC50 parental A431, triple co-culture screen
[12] = test system: A431-G2 cells (ABCG2 expressing); assay: Fluorescence-based cytotoxicity assay, ABCG2-expressing A431-G2 mOr; details: triple co-culture, result in words
[13] = test system: A431-2B1 cells (OATP2B1 expressing); assay: Fluorescence-based cytotoxicity assay, OATP2B1-expressing A431-2B1 mCh
[14] = test system: OATP2B1; assay: as above; details: human
[15] = biological target: T1, OATP2B1 (Homo sapiens, UniProt O94956); assay: Inhibition of OATP2B1-mediated Cascade Blue uptake (microplate-based uptake assay, A431-2B1 cells)
T1 sequence (O94956 1-709): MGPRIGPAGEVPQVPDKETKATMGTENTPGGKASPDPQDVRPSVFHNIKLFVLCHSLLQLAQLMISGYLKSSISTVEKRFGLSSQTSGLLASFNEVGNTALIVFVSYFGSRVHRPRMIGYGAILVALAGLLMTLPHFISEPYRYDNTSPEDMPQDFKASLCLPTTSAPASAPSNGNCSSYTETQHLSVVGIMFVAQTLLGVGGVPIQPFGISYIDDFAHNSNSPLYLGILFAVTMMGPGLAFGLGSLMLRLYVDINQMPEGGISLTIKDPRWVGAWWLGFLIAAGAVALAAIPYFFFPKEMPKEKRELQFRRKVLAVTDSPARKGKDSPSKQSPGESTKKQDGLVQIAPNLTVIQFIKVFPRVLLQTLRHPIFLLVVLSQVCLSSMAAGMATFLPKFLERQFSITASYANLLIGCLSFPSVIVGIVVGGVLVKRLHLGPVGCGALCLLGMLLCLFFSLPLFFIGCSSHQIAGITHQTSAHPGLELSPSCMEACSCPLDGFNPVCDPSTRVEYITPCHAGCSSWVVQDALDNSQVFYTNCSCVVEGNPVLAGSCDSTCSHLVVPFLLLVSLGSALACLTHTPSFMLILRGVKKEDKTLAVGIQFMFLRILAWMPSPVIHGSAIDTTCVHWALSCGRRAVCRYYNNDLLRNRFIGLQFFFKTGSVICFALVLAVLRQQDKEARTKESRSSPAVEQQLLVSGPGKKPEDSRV

[16] = test system: Mes-Sa/Dx5 cells
[17] = test system: ABCB1 (P-glycoprotein); assay: Fluorescence-based cytotoxicity assay, ABCB1-expressing A431-B1 mCh; details: human
[18] = test system: ABCG2; assay: Fluorescence-based cytotoxicity assay, ABCG2-expressing A431-G2 mOr; details: human
[19] = test system: OATP2B1; assay: in vitro; details: human
[20] = Homo sapiens, A-431, read-out: IC50 (µM) A431 eGFP, co-culture
[21] = Homo sapiens, A-431, read-out: IC50 (µM) A431 eGFP, monoculture
[22] = IC50 A431 eGFP / IC50 A4312B1 mCh, co-culture
[23] = IC50 A431 eGFP / IC50 A4312B1 mCh
[24] = primary screen, co-culture, Fig. 4 inset
[25] = A431-2B1 mCherry cells (OATP2B1-expressing), monoculture

Compound: Oc1c(CN2CCCCC2)ccc2cccnc12 [NSC57969]
- IC50 [1]: 4930 nM
- IC50 [2]: 974 nM
- IC50 [3]: 5760 nM
- IC50 [4]: 4890 nM
- IC50 [5]: 815 nM
- IC50 [6]: 1480 nM
- IC50 ([7]; read-out: IC50 Mes-Sa-B1, monoculture, monoculture): 2810 nM
- IC50 ([7]; read-out: IC50 Mes-Sa-B1, triple co-culture, triple co-culture): 1800 nM
- IC50 ([8]; read-out: IC50 Mes-Sa/DX5, monoculture, monoculture): 951 nM
- IC50 ([8]; read-out: IC50 Mes-Sa/DX5, triple co-culture, triple co-culture): 177 nM
- IC50 ([9]; read-out: IC50 A431, monoculture, fluorescent protein based assay, monoculture): 5.13 µM
- IC50 ([9]; read-out: IC50 A431, triple co-culture, fluorescent protein based assay, triple co-culture): 7.09 µM
- IC50 ([10]; read-out: IC50 Mes-Sa, monoculture, monoculture): 5080 nM
- IC50 ([10]; read-out: IC50 Mes-Sa, triple co-culture, triple co-culture): 3210 nM
- IC50 ([11]; read-out: IC50 A431B1, monoculture, monoculture): 774 nM
- IC50 ([11]; read-out: IC50 A431B1, triple co-culture, triple co-culture): 2780 nM
- Effect of ABCG2 expression on toxicity (A431-G2 vs parental A431) [12]: did not sensitize

Compound: COc1cc([C@@H]2c3cc4c(cc3[C@@H](O[C@@H]3O[C@@H]5CO[C@@H](c6cccs6)O[C@H]5[C@H](O)[C@H]3O)[C@H]3COC(=O)[C@H]23)OCO4)cc(OC)c1O [NSC-122819, Teniposide]
- RR (Mes-Sa-B1) [7]: 41.88
- RR (Dx5) [8]: 75.25
- IC50 [9, 20]: 0.45 µM
- IC50 [9, 21]: 0.83 µM
- RR (A431B1) [11]: 5.43
- SR, co-culture [13, 22]: 6.02^*
- SR, monoculture [13, 23]: 6.1^**
- SR (A431-2B1 vs parental A431), screening of DTP Oncology Set IV [13, 24]: 4.78
- IC50 at […] [14]: 70 nM
- IC50 at […] [14, 25]: 140 nM
- IC50 [15]: 4590 ± 400 nM

Compound: CN(Cc1cnc2nc(N)nc(N)c2n1)c1ccc(C(=O)N[C@@H](CCC(=O)O)C(=O)O)cc1 [NSC-740, Methotrexate]
- IC50 [9, 20]: 0.38 µM
- IC50 [9, 21]: 0.43 µM
- SR, co-culture [13, 22]: 11.78^**
- SR, monoculture [13, 23]: 3.59^**
- SR (A431-2B1 vs parental A431), screening of DTP Oncology Set IV [13, 24]: 9.00
- IC50 at […] [14]: 30 nM
- IC50 at […] [14, 25]: 120 nM
- IC50 [15]: 265000 ± 31400 nM

Compound: CO[C@@]12[C@H](COC(N)=O)C3=C(C(=O)C(C)=C(N)C3=O)N1C[C@@H]1N[C@@H]12 [NSC-26980, Mitomycin]
- SR (Mes-Sa/DX5) [16]: 4.407
- SR (Mes-Sa-B1) [7]: 0.56

Compound: CC(=O)O[C@@]12CO[C@@H]1C[C@H](O)[C@@]1(C)C(=O)[C@H](O)C3=C(C)[C@@H](OC(=O)[C@H](O)[C@@H](NC(=O)OC(C)(C)C)c4ccccc4)C[C@@](O)([C@@H](OC(=O)c4ccccc4)[C@H]21)C3(C)C [NSC-628503, Docetaxel]
- RR (Mes-Sa-B1) [7]: 275.00
- RR (Dx5) [8]: 295.00
- IC50 [9, 20]: 0.08 µM
- IC50 [9, 21]: 0.00097 µM
- RR (A431B1) [11]: 26.38
- SR, monoculture [13, 23]: 4.35^*
- SR (A431-2B1 vs parental A431), screening of DTP Oncology Set IV [13, 24]: 4.00
- IC50 at […] [14]: 2 nM
- IC50 at […] [14, 25]: 0.22 nM
- IC50 [15]: 11300 ± 380 nM

Compound: COc1cc([C@@H]2c3cc4c(cc3[C@@H](O[C@@H]3O[C@@H]5CO[C@@H](C)O[C@H]5[C@H](O)[C@H]3O)[C@H]3COC(=O)[C@H]23)OCO4)cc(OC)c1O [NSC-141540, Etoposide]
- IC50 ([1]; Homo sapiens, A-431): 1190 nM
- IC50 ([2]; Homo sapiens): 5490 nM
- IC50 ([3]; Homo sapiens): 3420 nM
- RR (Mes-Sa-B1) [7]: 16.97
- RR (Dx5) [8]: > 61.73
- IC50 [9, 20]: 7.45 µM
- IC50 [9, 21]: 6.42 µM
- IC50 ([9]; Homo sapiens, A-431, read-out: IC50 A431, monoculture): 6.1 µM
- IC50 ([9]; Homo sapiens, A-431, read-out: IC50 A431, triple co-culture): 1.69 µM
- RR (A431B1) [11]: > 4.14
- IC50 at […] [17]: 13800 nM
- IC50 at […] ([17]; A431-B1 mCherry cells (ABCB1-expressing), monoculture): 46300 nM
- IC50 at […] [18]: 4050 nM
- IC50 at […] ([18]; A431-G2 mOrange cells (ABCG2-expressing), monoculture): 12000 nM
- SR, co-culture [13, 22]: 9.06^**
- SR, monoculture [13, 23]: 3.2^*
- SR (A431-2B1 vs parental A431), screening of DTP Oncology Set IV [13, 24]: 3.017
- IC50 at […] [14]: 820 nM
- IC50 at […] [14, 25]: 1990 nM
- IC50 [15]: 1880 ± 320 nM

Compound: S=P(N1CC1)(N1CC1)N1CC1 [NSC-6396, Thioplex]
- IC50 [19]: 18700 nM
- SR (Mes-Sa/DX5) [8]: 12.56
- IC50 [9, 20]: 57.6 µM
- SR (A431-2B1 vs parental A431), screening of DTP Oncology Set IV [13]: 3.48
- SR, co-culture [13]: 3.08^*
- IC50 [15]: 574000 ± 283000 nM

Reference: paper PMC6510822, “Identification of anticancer OATP2B1 substrates by an in vitro triple-fluorescence-based cytotoxicity screen” (Archives of Toxicology, 2019)
